In patent US6613766B1, “Pentaaza-cyclopental[a]naphthalene derivatives as ligands for GABAa α5 receptors” (Merck Sharp & Dohme Ltd., priority 1998, dated 2003):

melting point: 255 to 257 °C
Structure (SMILES): Cc1cc(-c2nnc3c4cccnc4c(OCc4ncnn4C)nn23)no1 [Example 4, 3-(5-Methylisoxazol-3-yl)-5-(2-methyl-1,2,4-triazol-3-ylmethyloxy)-1,2,3a,4,6-pentaaza-cyclopenta[a]naphthalene]
